According to patent US20240033244A1, “COMPOSITIONS AND METHODS FOR INHIBITING YTHDF1” (SHANGHAI INSTITUTE OF MATERIA MEDICA, CHINESE ACADEMY OF …, priority 2020, published 2024):

Legend:
YTHDF1 (361-559) = molecular target: T1, YTHDF1 (361-559) (Homo sapiens, UniProt Q9BYJ9); assay: SPR binding assay
T1 construct: GST (N, cleaved yes); made in house; host or cells: E. coli BL21 (DE3)
T1 sequence (Q9BYJ9 with tags, fused parts or gaps): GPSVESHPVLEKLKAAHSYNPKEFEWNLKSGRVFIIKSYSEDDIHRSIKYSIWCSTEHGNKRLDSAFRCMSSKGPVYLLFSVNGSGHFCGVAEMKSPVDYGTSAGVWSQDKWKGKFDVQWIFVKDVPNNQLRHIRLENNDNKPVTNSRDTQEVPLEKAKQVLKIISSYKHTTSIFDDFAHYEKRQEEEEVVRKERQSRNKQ
Procedure: SPR binding assay was conducted at 25° C. on the Biacore T200 instrument (GE Healthcare). YTHDF1 (361-559) was covalently immobilized on a CM5 chip via standard amine-coupling procedure in the condition of 10 mM sodium acetate (pH 5.5).

YTHDF1 mutant H528A = molecular target: T2, YTHDF1 mutant H528A (Homo sapiens, UniProt Q9BYJ9, H528A); assay: FP assay with YTHDF1 mutant H528A; type: binding
T2 construct: GST (N, cleaved yes); made in house; host or cells: E. coli BL21 (DE3)
T2 sequence (Q9BYJ9 with tags, fused parts or gaps H528A): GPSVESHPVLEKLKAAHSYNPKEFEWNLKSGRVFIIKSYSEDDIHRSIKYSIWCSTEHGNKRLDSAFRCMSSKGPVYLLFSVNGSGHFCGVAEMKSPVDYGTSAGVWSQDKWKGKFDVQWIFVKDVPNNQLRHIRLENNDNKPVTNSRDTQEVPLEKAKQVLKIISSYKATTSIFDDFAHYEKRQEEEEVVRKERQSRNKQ
Procedure: (§1) The protein YTHDF1 (361-559) (SEQ ID NO: 2) and its mutants (SEQ ID NOs: 4-13) were cloned into pGEx-6P-1 vector (obtained from YouBio Co, Ltd, Catalog NO: VT1258), and the His-YTHDF1 (361-559) (SEQ ID NO: 3) used in AlphaScreen Assay was cloned into modified pET28a vector (obtained from YouBio Co, Ltd, Catalog NO: VT1207). The vectors were transformed into E. coli BL21 (DE3) cells and cultured at 37° C. When OD value reached 0.6˜0.8, 1 mM Isopropyl-β-D-thiogalactopyranoside was added to overexpress the protein at 16° C. overnight. […] Then, the proteins were further purified via cation exchange (HiTrap SP, GE Healthcare) and finally through a Superdex 75 10/300 column (GE Healthcare). At last, the purified YTHDF1(361-559) and the mutants were kept in buffer which contains 20 mM Hepes (pH 7.4) and 200 mM NaCl. For His-YTHDF1 (361-559), the protein was purified via Ni-NTA chromatography (HisTrap FF, GE Healthcare), followed by cation exchange and Superdex 75 10/300 column in sequence. And the obtained protein was kept in the buffer with the same ingredients.
(§2) All of the YTHDF1 (361-559), the 5′-FAM labeled m^6A-containing mRNA (5′-FAM-[…] (m^6A) CUGUG-3′, SEQ ID NO: 14) and the candidate compounds were diluted with assay buffer (20 mM Hepes (pH 7.4), 50 mM NaCl, 0.01% (v/v) tween 20, 5% (v/v) glycerol). […] At last, the mixtures were measured by Envision Readers (PerkinElmer). […]

B16-OVA tumor = B16-OVA tumor growth, SAA with anti-PD-L1 antibody; type: in vivo, mouse; details: 5×10^5 B16-OVA; 10 μM SAA day 9 and 11; 100 ug anti-PD-L1 antibody day 9
Procedure: For B6 mice tumor growth, 5×10^5 B16-OVA or 1×10^6 E.G7-OVA tumor cells were inoculated subcutaneously (s.c.) into the flank of mice. Tumor length (a) and width (b) was measured every two days and tumor volume was calculated by the formula ab^2/2. For the inhibitor treatment, 10 μM SAA or DMSO was injected intraperitoneally (i.p.) on day 9 and 11 after tumor inoculation. For other mice model (rag1^−/− and Ythdf1 conditional knockout), times and dose of inhibitor treatment was the same. For α-PD-L1 and SAA combination treatment, 5×10^5 B16-OVA tumor cells were inoculated subcutaneously into the flank of mice. 100 μg α-PD-L1 antibody (clone 10F.9G2) or rat immunoglobulin were administered at day 9 after tumor inoculation. 10 μM SAA or DMSO was administered in the same way on day 9 and 11 after tumor injection.
Wild-type mice were injected subcutaneously with 5×10^5 B16-OVA cells. 10 μM SAA was injected to each mouse on day 9 and day 11. Mice were also treated with 100 ug anti-PD-L1 antibody on day 9. Tumor growth was monitored over time.

YTHDF1 mutant W384A = molecular target: T3, YTHDF1 mutant W384A (Homo sapiens, UniProt Q9BYJ9, W384A); assay: FP assay with YTHDF1 mutant W384A; type: binding
T3 construct: GST (N, cleaved yes); made in house; host or cells: E. coli BL21 (DE3)
T3 sequence (Q9BYJ9 with tags, fused parts or gaps W384A): as the sequence (Q9BYJ9 with tags, fused parts or gaps H528A) above, with W26A, A170H counted along it
Procedure: as §1, §2

His-YTHDF1 (361-559) = molecular target: T4, His-YTHDF1 (361-559) (Homo sapiens, UniProt Q9BYJ9); assay: AlphaScreen competition assay against non-biotinylated m6A-containing mRNA; type: binding
T4 construct: made in house; host or cells: E. coli BL21 (DE3)
T4 sequence (Q9BYJ9 with tags, fused parts or gaps): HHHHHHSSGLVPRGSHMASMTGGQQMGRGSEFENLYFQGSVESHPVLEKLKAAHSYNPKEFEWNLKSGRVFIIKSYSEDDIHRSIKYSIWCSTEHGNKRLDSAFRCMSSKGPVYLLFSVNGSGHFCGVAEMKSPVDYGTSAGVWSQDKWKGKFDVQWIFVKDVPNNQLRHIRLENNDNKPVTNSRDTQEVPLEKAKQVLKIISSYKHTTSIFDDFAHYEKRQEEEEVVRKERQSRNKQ
Procedure: 200 nM His-YTHDF1 (361-559) was incubated with non-biotinylated m^6A-containing mRNA at 4° C. for 10 minutes. […] Next, 20 nM biotinylated m^6A-containing mRNA and two kinds of beads were added in subdued light and incubated at 4° C. for 1 hour before detection.
A competitive binding experiment was performed against fixed concentrations of non-biotinylated m^6A-containing mRNA, based on AlphaScreen assay, using 200 nM YTHDF1 and 20 nM biotinylated m^6A-containing mRNA.

B16-OVA tumor cells = assay: B16-OVA tumor cell proliferation in vitro; type: cell-based, mouse; details: 5×10^4 B16-OVA cells, various doses, 12 hours
Procedure: In a further experiment, tumor cells were treated with SAA in vitro. Briefly, 5×10^4 B16-OVA tumor cells were treated with SAA of various doses respectively in a 96-well plate. Cell number was counted 12 hours after said SAA treatment.

- Kd (YTHDF1 (361-559)): 2520 nM
- inhibitory activity against YTHDF1 with competitor (His-YTHDF1 (361-559); 50 nM, 100 nM, 200 nM or 400 nM non-biotinylated m6A-containing mRNA preincubated with YTHDF1): remained unchanged
- IC50 (His-YTHDF1 (361-559); absence of non-biotinylated m6A-containing mRNA, 200 nM YTHDF1, 20 nM biotinylated mRNA, read-out: inhibitory activity against YTHDF1): 800 ± 80 nM
Structure (SMILES): O=C(/C=C/c1ccc(O)c(O)c1/C=C/c1ccc(O)c(O)c1)O[C@H](Cc1ccc(O)c(O)c1)C(=O)O [SAA, Salvianolic Acid A]
- inhibitory activity against mutant binding to m6A versus wildtype (YTHDF1 mutant H528A): significantly weaker than that against wildtype YTHDF1
- B16-OVA tumor growth (B16-OVA tumor): partially inhibit
- inhibitory activity against mutant binding to m6A versus wildtype (YTHDF1 mutant W384A): significantly weaker than that against wildtype YTHDF1
- proliferation of tumor cells (cell number) (B16-OVA tumor cells): not affected
